Tests used:
[1] = test system: mutant collagen X; experiment: Western blot of intracellular mutant collagen X protein, with proteasome or lysosome inhibitors; assay type: cell-based
Experimental: FIG. 1 illustrates the effects of carbamazepine treatment on ER stress induced by four different MCDS-causing mutations in collagen X; (a) BiP, b) CHOP c) spliced XBP1 mRNA level in cells transiently expressing one of four mutant collagen X constructs and treated for 24 hours with Carbamazepine (CBZ) (20 μM). Quantitation is relative to actin mRNA levels. Mean±SEM. (d) Western blot showing intracellular collagen X protein levels with and without 24 hours CBZ treatment. Quantification of three independent experiments shown in (e). (f) Western blot for N617K collagen X collagen X protein levels in the presence of CBZ for either 0 or 24 hours. […] Quantification of three independent experiments relative to GAPDH and standardised against the protein level in the 16 h untreated timepoint is shown in (h) and (i). […]
FIG. 6 illustrates the degradation route of mutant collagen X proteins Western blot for (a) G618V or (c) Y598D collagen X protein levels in the presence of CBZ for either 0 or 24 hours. […] Quantification of three independent experiments relative to GAPDH and standardised against the protein level in the 16 h untreated timepoint is shown in (b) and (d). […]
Protein was extracted from cells 24 hours post-transfection. […] The resulting supernatant was transferred to a fresh tube and protein concentration determined using a Pierce bicinchoninic acid (BCA) protein assay. […]

[2] = test system: cells expressing wild-type (WT) or N617K collagen X; experiment: General protein synthesis rates in cells expressing collagen X; assay type: cell-based; conditions: CBZ for 24 hours
Experimental: FIG. 5 illustrates the effect of CBZ treatment in vitro (a) Cell viability of cell treated with 20 μM CBZ. (b) Collagen X mRNA level of HeLa cells transiently transfected with a rang of collagen X mutations in the presence or absence of CBZ for 24 hours. (c) General protein synthesis rates of cells expressing wild-type (WT) or N617K collagen X and treated with CBZ for 24 hours. UTF=untransfected cell controls. Mean±SEM of three independent experiments in each case.

[3] = test system: wild type (+/+) or Col1a2 p.G610C (+/-) osteoblast cells; experiment: Cellular stress assay: CHOP expression by qPCR in osteoblasts; assay type: cell-based, mouse; conditions: 20 μM CBZ, 21 days, relative to DMSO controls
Experimental: Cells were incubated for 21 days with 20 μM CBZ before extracting RNA and quantification by qPCR. Each data point represents a separate biological replicate. Error bars show standard error of mean. *=p<0.05.
Expression levels of CCAAT-enhancer binding protein homologous protein (CHOP) was measured. Wild type (+/+) or Col1a2 p.G610C (+/−) cells were incubated in osteogenic differentiation media for 21 days with or without 20 μM CBZ.
RNA was extracted from the cells after 21 days and the levels of Chop gene expression was quantified by qPCR using a protocol as previously described herein.

[4] = test system: WT mice; experiment: CBZ treatment of wild-type mice (growth plate, collagen X localisation, bone growth); assay type: in vivo, mouse
Experimental: FIG. 7 illustrates the effect of CBZ treatment of WT mice Wild-type (WT) mice were treated with CBZ for a period of one week. Untreated mice were used as controls. (a)H+E images of the tibial growth plate at 4 weeks of age. (b) Table showing measurements of the growth plate zones. Mean±SEM. Number of animals shown in bracket. (c) Immunohistochemistry for collagen X in the tibial growth plate. Percentage increase in bone growth of the (d) Tibia and (e) Femur from 3 weeks of age. Mean±SEM.
Mice were anaesthetised using isofluorane, placed on X-Ray hyperfilm (GE healthcare, GZ28906850) and X-Rayed using a Flaxitron X-ray specimen radiography system (Flaxitron MX-20). X-Rays were performed prior to implantation and once per week for a maximum of 3 weeks. The analysis of the skeleton was done using Growbase software (Certus Technology Associated Limited, UK) to calculate the length of the femur, tibia and inner canthal distance. The bone growth rate was determined as a percentage increase relative to measurements at 3 weeks of age. Image J was used to analyse the angle of deflection from the vertical tuberosity of the ischium to determine the severity of the hip dysplasia phenotype. All measurements were analysed by ANOVA to determine significance using GraphPad Prism 6.0 software.
Growth plate zone widths were measured on images of known magnification as described previously (Rajpar et al 2009). The beginning of the proliferative zone was defined as the point at which the individual round chondrocytes flattened out and arranged into columns. The start of the hypertrophic zone was defined as the point at which proliferative chondrocytes rounded up and enlarged. The end of the hypertrophic zone was defined as the vascular invasion front. For each animal the data from three separate sections, spaced a minimum of 50 μm apart were averaged. Measurements were analysed for statistical significance by one-way ANOVA using GraphPad Prism 6.0 software. […]

NC(=O)N1c2ccccc2C=Cc2ccccc21 [CBZ, Carbamazepine]
degradation rates of mutant collagen X proteins ([1]; each of 4 mutant collagen X proteins, PSII or chloroquine for the final 8 hours): enhanced the degradation rates | intracellular levels of mutant collagen X protein ([1]; each of 4 mutations, 24 hours CBZ treatment): significant reductions | rates of general protein synthesis [2]: did not affect | Chop expression [3]: significantly decreased | bone growth rates [4]: did not cause a significant increase | hypertrophic zone width ([4]; CBZ for one week): no effect | collagen X protein localisation ([4]; tibial growth plate): no effect

From US20190076440A1, “TREATMENT OF TISSUE DISORDERS” (priority 2016, published 2019)
